For one molecule, IC50 results are on record in ChEMBL document CHEMBL5728099, “Thienopyridines and benzothiophenes useful as IRAK4 inhibitors” (2020).

This experiment addresses T1, Interleukin-1 receptor-associated kinase 4 (Homo sapiens, UniProt Q9NWZ3).
T1 sequence (Q9NWZ3 whole entry): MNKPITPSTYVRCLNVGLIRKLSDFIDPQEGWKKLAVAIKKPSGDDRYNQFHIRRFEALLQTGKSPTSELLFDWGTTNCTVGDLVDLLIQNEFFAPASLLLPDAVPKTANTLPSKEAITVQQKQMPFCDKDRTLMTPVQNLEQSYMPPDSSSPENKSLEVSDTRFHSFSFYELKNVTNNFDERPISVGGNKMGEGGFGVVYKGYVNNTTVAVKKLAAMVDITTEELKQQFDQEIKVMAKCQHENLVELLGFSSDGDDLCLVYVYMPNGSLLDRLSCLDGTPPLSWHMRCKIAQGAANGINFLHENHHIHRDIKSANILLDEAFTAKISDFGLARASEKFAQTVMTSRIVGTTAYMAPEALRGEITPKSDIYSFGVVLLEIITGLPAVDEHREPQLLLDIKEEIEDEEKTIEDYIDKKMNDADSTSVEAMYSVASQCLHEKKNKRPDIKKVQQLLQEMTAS
Description: Inhibition Assay: The assays were performed in U-bottom 384-well plates. The final assay volume was 30 μL prepared from 15 μL additions of enzyme and substrates (fluoresceinated peptide and ATP) and test compounds in assay buffer (20 mM HEPES pH 7.2, 10 mM MgCl2, 0.015% Brij 35 and 4 mM DTT). The reaction was initiated by the combination of IRAK4 with substrates and test compounds. The reaction mixture was incubated at room temperature for 60 min. and terminated by adding 45 μL of 35 mM EDTA to each sample. The reaction mixture was analyzed on the Caliper LABCHIP® 3000 (Caliper, Hopkinton, Mass.) by electrophoretic separation of the fluorescent substrate and phosphorylated product. Inhibition data were calculated by comparison to no enzyme control reactions for 100% inhibition and vehicle-only reactions for 0% inhibition. The final concentrations of reagents in the assays are ATP, 500 μM; FL-IPTSPITTTYFFFKKK peptide 1.5 μM; IRAK4, 0.6 nM; and DMSO, 1.6%.

As to `CC[C@H]1[C@@H](COc2csc3cc(C(N)=O)c(OC)nc23)NC(=O)C1(C)C`, the concentration for half-maximal inhibition (IC50) – broadly, the concentration at which inhibition is half-maximal – was 595 nM.
